Experiments:
ALKBH5 = target: T1, ALKBH5 (Homo sapiens, UniProt Q6P6C2); assay: Fluorescence enzymatic inhibition assay (m6A7-Broccoli / DFHBI-1T), ALKBH5; format: biochemical; conditions: for IC50: Permeability Data and IC50 tables the 33rd table/the 34th table, unit inferred; for inhibition of ALKBH5 at the highest concentration measured: highest concentration 40 μM
T1 construct: SUMO (N); His10 (N); made in house; host or cells: E. coli BL21
Procedure: (§1) E. coli BL21 competent cells (New England Biolabs) were transformed with pET28-SUMO-His10-FTO plasmid (a generous gift from the Jaffrey lab) by heat shock and spread on a LB Kanamycin agar plate, then incubated overnight at 37° C. 2-3 colonies were picked and transferred to 5 mL of LB media treated with kanamycin (0.5 mg mL^−1 final concentration), then grown overnight shaking at 37° C. The overnight culture was then transferred to 2 L of LB kanamycin media and incubated at 37° C. until OD 0.8. The culture was cooled at 4° C. for 20 mins and induced with 0.5 mM isopropyl β-D-1-thiogalactopyranoside (IPTG), then grown shaken at 16° C. Cell pellets were collected by centrifugation (5,000 g for 10 min at 4° C.) and the supernatant was discarded. The pellets were resuspended in B-PER Bacterial Protein Extraction Reagent (6 mL per gram) with DNase 1 (5 U per mL, RNase-free) and incubated at 4° C. for 1 hour. The suspension was centrifuged at 10,000 g for 20 min and the supernatant was transferred to a Talon Metal Affinity Resin column that had been pre-equilibrized with binding buffer (50 mM NaH2PO4 pH 7.2, 300 mM NaCl, 20 mM imidazole, 1 mM β-mercaptoethanol in RNase-free water). […] The eluant was combined and transferred to a Slyde-A-Lyzer Dialysis Cassette (20,000 MWCO, Thermo Scientific) and dialyzed overnight at 4° C. against dialysis buffer (50 mM Tris-HCl pH 7.4, 100 mM NaCl, 5 mM B-mercaptoethanol, 5% (v/v) glycerol in RNase-free water). […] ALKBH5 was expressed and purified from pET28-SUMO-His10-ALKBH5 plasmid by the same procedure described above.
(§2) Inhibitors were added in concentrations ranging from 0.008-40 μM; all inhibitors were dissolved in DMSO and added to a final concentration of 0.2% DMSO. […] After incubation at room temperature for 2 hours, the plates were left at 4° C. overnight (16 hours) to allow DFHBI-1T to bind to A7-Broccoli RNA. […] Sigmoidal dose-response curves were fitted in GraphPad Prism 6. All assays were performed in triplicate, with additional repetitions added as necessary.

FTO [1] = target: T2, FTO (Homo sapiens, UniProt Q9C0B1); conditions: reported (ref. 36); stated as selectivity against ALKBH5; cited from earlier work
T2 construct: SUMO (N); His10 (N); made in house; host or cells: E. coli BL21
T2 sequence (Q9C0B1 whole entry): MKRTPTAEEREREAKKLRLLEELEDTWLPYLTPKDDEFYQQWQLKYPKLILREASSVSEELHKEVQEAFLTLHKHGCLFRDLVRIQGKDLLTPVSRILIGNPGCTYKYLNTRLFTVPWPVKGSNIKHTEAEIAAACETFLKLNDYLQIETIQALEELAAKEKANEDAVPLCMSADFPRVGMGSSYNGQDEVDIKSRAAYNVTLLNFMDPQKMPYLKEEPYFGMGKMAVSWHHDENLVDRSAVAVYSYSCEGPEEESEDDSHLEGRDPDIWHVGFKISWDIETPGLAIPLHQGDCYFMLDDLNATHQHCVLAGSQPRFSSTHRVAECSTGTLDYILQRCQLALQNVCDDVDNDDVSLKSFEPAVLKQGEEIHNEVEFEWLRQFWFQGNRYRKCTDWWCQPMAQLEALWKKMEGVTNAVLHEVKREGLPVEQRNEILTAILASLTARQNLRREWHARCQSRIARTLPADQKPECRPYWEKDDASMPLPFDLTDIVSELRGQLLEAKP

MONOMAC6 and NB4 cells = conditions: fold, Huang et. al; cited from earlier work
[2] = QikProp calculation of clogP and membrane permeability (Caco-2, MDCK models); conditions: predicted permeability models; fold
Procedure: In order to identify chemically distinct inhibitors of FTO, we used a combination of structure-based drug design and molecular docking with the Schrödinger software suite to target the MA binding site of FTO. […] Interactions with these four residues were considered highly favorable. […] Docking poses for FTO-1-20 are in the supporting information (FIGS. 32-51). Hits showing promising docking scores (absolute value ≥7) were also analyzed by QikProp to assess their physicochemical properties. As existing FTO inhibitors fail to progress to clinical applications due to poor pharmacokinetic profiles, it was important to filter our screen for compounds with more favorable physicochemical properties. […] These criteria were selected due to multiple studies indicating compounds with low molecular weight and moderate lipophilicity are more likely to show favorable adsorption and clearance rates, and less toxicity due to target promiscuity. As such, controlling the physicochemical properties of inhibitors during the initial screening stages should select for better leads for future optimization and development. Based on these criteria, the top 20 inhibitors were selected for synthesis (Table S1). These parameters were also calculated for MA, FB23-2 and its precursor FB23 (Table S2). […]

FTO [3] = target: T2, FTO; assay: Fluorescence enzymatic inhibition assay (m6A7-Broccoli / DFHBI-1T), FTO; format: biochemical; conditions: for precipitation in assay buffer: dose response could not be determined
Procedure: In order to determine their efficacy as FTO inhibitors, the compounds were screened by a fluorescence enzymatic inhibition assay developed previously by the Jaffrey lab.^44 Briefly, a nonfluorescent methylated RNA substrate termed “m6A7-Broccoli” is incubated with FTO in the presence of 2-oxoglutarate (300 μM), (NH4)2Fe(SO4)2·6H2O (300 μM), and L-ascorbate (2 mM) for 2 hours at room temperature in reaction buffer (50 mM NaHEPES, pH 6).
as §1, §2

[4] = tested on: TS576 glioblastoma stem cells; assay: Tumorosphere (neurosphere) formation assay, TS576; format: cell-based, human; conditions: TS576, 30 μM, 2 days, vs vehicle control
Procedure: To understand the effects of our FTO inhibitors on the self-renewal properties of GSCs, tumorospheres cultured from the patient-derived GSC line TS576 were treated with 30 μM of FTO-04, FTO-10, FTO-11, or FTO-12 (FIG. 29A-29B; cell line gifted from the Furnari lab).^45, 46 The GSCs were cultured in sphere-forming assays for 24 hours, then treated with either inhibitors or DMSO control for 2 days. The size of the tumorospheres was calculated using ImageJ.
Early passaged GSCs were used to understand the efficacy of ALK-04 on the self-renewal capacity of GSCs by tumorsphere-formation assay as described earlier^10, 11. In brief, GSCs were seeded at 4×10^4 cells in 24 well plate and cultured for 3 days followed by treatment with ALK-04 inhibitors at 20 μM daily for 3 days. After 3 days of treatment the images of the tumorospheres were imaged with phase contrast microscope and size was measured with Image J, to understand the effects of drugs on the self-renewal of GSCs on sphere formation. This process was also repeated for healthy neural stem cells (hNSCs) treated daily with 20 μM ALK-04 for three days to assess the therapeutic ratio.

AGS = assay: High Throughput Screen for growth inhibition, AGS; format: cell-based; conditions: Gastric, 3 days, unit not given
Procedure: (§3) The High Throughput Screen method is described below. The endpoint readout of this assay is based upon quantitation of ATP as an indicator of viable cells.
(§4) Cell lines that have been preserved in liquid nitrogen are thawed and expanded in growth media (see Table 1-3). Once cells have reached expected doubling times, screening begins. Cells are seeded in growth media in black 384-well tissue culture treated plates at 500-1500 cells per well (as noted in Analyzer). Cells are equilibrated in assay plates via centrifugation and placed at 37° C. 5% CO2 for twenty-four hours before treatment. […] Assay plates are incubated with compound for 3 days and are then analysed using CellTiter-Glo 2.0. All data points are collected via automated processes and are subject to quality control and analysed using Horizon's software.
(§5) Growth Inhibition (GI) is utilized as a measure of cell growth. The GI percentages are calculated by applying the following test and equation: If T<V_0: 100*(1−(T−V_0)/V_0) If T≥V_0: 100*(1−(T−V_0)/(V−V_0)) where T is the signal measure for a test article, V is the untreated/vehicle-treated control measure, and Vo is the untreated/vehicle control measure at time zero (also colloquially referred as T0 plates). This formula is derived from the Growth Inhibition calculation used in the National Cancer Institute's NCI-60 high throughput screen. For the purposes of this report, all data analysis was performed in Growth Inhibition (except where noted).
(§6) A GI of 100% represents complete growth inhibition (cytostasis) and in this case cells treated with compound for 3 days would have the same endpoint reading as TO control cells. A GI of 200% represents complete death (cytotoxicity) of all cells in the culture well and in this case the T reading at 3 days will be lower than the TO control (values near or at zero).
(§7) Horizon also provides Inhibition as a measure of cell viability. Inhibition levels of 0% represent no inhibition of cell growth by treatment. Inhibition of 100% represents no doubling of cell numbers during the treatment window. Both cytostatic and cytotoxic treatments can yield an Inhibition percentage of 100%. Inhibition percentage is calculated as the following: I=1−T/U where T is the treated and U is the untreated/vehicle control.

HEC-50B = assay: High Throughput Screen for growth inhibition, HEC-50B; format: cell-based; conditions: Endometrial (uterine), 3 days, unit not given
Procedure: as §3, §4
as §5, with “For the purposes of this report, all data analysis was performed in Growth Inhibition (except where noted).” left out

BICR16 = assay: High Throughput Screen for growth inhibition, BICR16; format: cell-based; conditions: BICR16, Head and Neck; 3 days; unit not given
Procedure: as §3, §4, §5, §6
(§8) Horizon also provides Inhibition as a measure of cell viability. Inhibition levels of 0% represent no inhibition of cell growth by treatment. […] Inhibition percentage is calculated as the following: I=1−T/U where T is the treated and U is the untreated/vehicle control.

LUDLU-1 = assay: High Throughput Screen for growth inhibition, LUDLU-1; format: cell-based; conditions: LUDLU-1, LUSC; 3 days; unit not given
Procedure: as §3, §4, §5, §6, §8

MOLT-4 = assay: High Throughput Screen for growth inhibition, MOLT-4; format: cell-based; conditions: MOLT-4, Leukemia; 3 days; unit not given
Procedure: as §3, §4, §5, §6, §7

Kasumi-1 = assay: High Throughput Screen for growth inhibition, Kasumi-1; format: cell-based; conditions: Kasumi-1, Leukemia; 3 days; unit not given
Procedure: as §3, §4
as §5, with “For the purposes of this report, all data analysis was performed in Growth Inhibition (except where noted).” left out

SW480 = assay: High Throughput Screen for growth inhibition, SW480; format: cell-based; conditions: SW480, Colon; 3 days; unit not given
Procedure: as §3, §4
as §5, with “For the purposes of this report, all data analysis was performed in Growth Inhibition (except where noted).” left out

HCT-116 = assay: High Throughput Screen for growth inhibition, HCT-116; format: cell-based; conditions: HCT-116, Colon; 3 days; unit not given
Procedure: as §3, §4
as §5, with “For the purposes of this report, all data analysis was performed in Growth Inhibition (except where noted).” left out

SUM159PT = assay: High Throughput Screen for growth inhibition, SUM159PT; format: cell-based; conditions: Breast, 3 days, unit not given
Procedure: as §3, §4
as §5, with “For the purposes of this report, all data analysis was performed in Growth Inhibition (except where noted).” left out

T1 sequence (Q6P6C2 whole entry): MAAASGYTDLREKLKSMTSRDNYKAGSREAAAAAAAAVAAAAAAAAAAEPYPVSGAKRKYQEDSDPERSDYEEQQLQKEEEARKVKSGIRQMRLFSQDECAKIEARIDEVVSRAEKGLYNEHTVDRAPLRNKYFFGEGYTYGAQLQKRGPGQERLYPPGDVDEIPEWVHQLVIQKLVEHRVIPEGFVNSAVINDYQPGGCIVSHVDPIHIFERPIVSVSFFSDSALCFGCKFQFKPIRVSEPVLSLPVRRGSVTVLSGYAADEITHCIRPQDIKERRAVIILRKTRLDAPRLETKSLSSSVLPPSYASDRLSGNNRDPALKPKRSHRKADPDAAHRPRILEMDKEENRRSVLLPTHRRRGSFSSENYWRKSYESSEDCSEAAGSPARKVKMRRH

COC(=O)C1COC(c2ccc(OC)cc2)N1 (centres unmarked) [ALK-12] gave an IC50 (ALKBH5) of 16.7 ± 2.6 µM.
COC(=O)C1COC(c2ccccc2F)N1 (centres unmarked) [ALK-14] showed an IC50 (ALKBH5) of 29.8 ± 2.9 µM.
In the case of COC(=O)C1COC(c2ccccc2OC)N1 (centres unmarked) [ALK-15], the IC50 (ALKBH5) is reported as 18.2 ± 2.3 µM.
In the case of Cc1noc(C)c1-c1cc(Cl)c(Nc2ccccc2C(=O)NO)c(Cl)c1 [FB23-2], the “inhibition of FTO at 50 μM” value (FTO [1]) is given as “little to no inhibition”, the “cellular concentration relative to FB23” value (MONOMAC6 and NB4 cells) is given as 3-10 and the “estimated rate of passive diffusion relative to FB23” value [2] is given as ~2.5.
In the case of Oc1ccc2cc(-c3cncnc3)ccc2c1 [FTO-1, 6-(pyrimidin-5-yl)naphthalen-2-ol], the “inhibition of ALKBH5 at the highest concentration measured” value (shortened to “inhibition of ALKBH5”) (ALKBH5) is reported as “no measurable inhibition”.
For COc1ncc(-c2cccc(OCc3ccccc3)c2)cn1 [FTO-3, 5-(3-(benzyloxy)phenyl)-2-methoxypyrimidine], the “precipitation in assay buffer” value (FTO [3]) was “significant precipitation in assay buffer”.
With COc1ccc2cc(-c3cncnc3)ccc2c1 [FTO-5, 5-(6-methoxynaphthalen-2-yl)pyrimidine] the “inhibition of ALKBH5” value (ALKBH5) was “no measurable inhibition”.
For Cc1ccc2cc(-c3cncnc3)ccc2n1 [FTO-7, 2-methyl-6-(pyrimidin-5-yl)quinoline], the “inhibition of ALKBH5” value (ALKBH5) was “no measurable inhibition”.
With Nc1ncc(-c2cccc(Nc3ccccc3)c2)cn1 [FTO-9, 5-(3-(phenylamino)phenyl)pyrimidin-2-amine] the “preference (selectivity) between FTO and ALKBH5” value (FTO [3]; ratio of potency towards FTO and ALKBH5) was “almost ten times more potent towards ALKBH5”.
For Nc1ncc(-c2ccc3cc(O)ccc3c2)cn1 [FTO-10, 6-(2-aminopyrimidin-5-yl)naphthalen-2-ol], the size of tumorospheres [4] was “significant reduction in size of the tumorospheres”.
With COc1ncc(-c2ccc3nc(C)ccc3c2)cn1 [FTO-11, 6-(2-methoxypyrimidin-5-yl)-2-methylquinoline] the size of tumorospheres [4] was “significant reduction in size of the tumorospheres”.
With COc1ccc2cc(-c3cnc(N)nc3)ccc2c1 [FTO-12, 5-(6-methoxynaphthalen-2-yl)pyrimidin-2-amine] the size of tumorospheres [4] was “significant reduction in size of the tumorospheres” and the “inhibition of ALKBH5” value (ALKBH5) was “no measurable inhibition”.
In the case of COCCNc1ncc(-c2ccc3cc(OC)ccc3c2)cn1 [FTO-15, N-(2-methoxyethyl)-5-(6-methoxynaphthalen-2-yl)pyrimidin-2-amine], the “precipitation in assay buffer” value (FTO [3]) is reported as “significant precipitation in assay buffer”.
With COCCNc1ncc(-c2ccc(OCc3ccccc3)cc2)cn1 [FTO-18, 5-(4-(benzyloxy)phenyl)-N-(2-methoxyethyl)pyrimidin-2-amine] the “inhibition of ALKBH5” value (ALKBH5) was “no measurable inhibition”.
With c1ccc(-c2ccc(CNCC3(N4CCCC4)COC3)s2)cc1 [TR-FTO-38] the “Growth Inhibition (GI) Values” (AGS) was 23.3, the “Growth Inhibition (GI) Values” (HEC-50B) was 14.018 and the “Growth Inhibition (GI) Values” (BICR16) was 29.832. The “Growth Inhibition (GI) Values” (LUDLU-1) was 31.952 and the “Growth Inhibition (GI) Values” (MOLT-4) was 24.366.
For Clc1ccccc1-c1ccc(CNCC2(N3CCCC3)COC2)o1 [TR-FTO-43 N], the “Growth Inhibition (GI) Values” (AGS) was 21.005, the “Growth Inhibition (GI) Values” (Kasumi-1) was 18.136 and the “Growth Inhibition (GI) Values” (BICR16) was 25.212. The “Growth Inhibition (GI) Values” (LUDLU-1) was 28.561, the “Growth Inhibition (GI) Values” (SW480) was 28.499 and the “Growth Inhibition (GI) Values” (MOLT-4) was 24.595. For the same compound, the “Growth Inhibition (GI) Values” (HCT-116) was 31.451.
With FC1CCN(C2(CNCc3ccc(-c4ccccc4Cl)o3)COC2)C1 (centres unmarked) [TR-FTO-49 N] the “Growth Inhibition (GI) Values” (MOLT-4) was 27.521.
With c1cncc(CNc2ccc(CNC3CC3)cn2)c1 [TR-YTH-05] the “Growth Inhibition (GI) Values” (AGS) was 6.35 and the “Growth Inhibition (GI) Values” (SUM159PT) was 8.629.
